Laboratory results taken from ChEMBL document CHEMBL1201862, “PubChem BioAssay data set” (2004).
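Interpolation was linear, between the two tested concentrations surrounding the appropriate level; five concentrations were tested over 48 hours in 96-well plates. The concentration for 50% growth inhibition is given as GI50.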 Active and inactive are the calls of the source. No stated cut-off is given here; in the data, active = GI50 up to about 1.1 µM and inactive = higher.

What was measured:
Assay in all cases: NCI tumour cell line growth inhibition, 48 h
U-251 = tested on: U-251
K562 = tested on: K562
LOX IMVI = tested on: LOX IMVI
CCRF-CEM = tested on: CCRF-CEM
SK-OV-3 = tested on: SK-OV-3
SNB-75 = tested on: SNB-75
HCC 2998 = tested on: HCC 2998
SN12C = tested on: SN12C
786-0 = tested on: 786-0
SK-MEL-28 = tested on: SK-MEL-28
UACC-257 = tested on: UACC-257
SNB-19 = tested on: SNB-19
HOP-92 = tested on: HOP-92
RPMI-8226 = tested on: RPMI-8226
IGROV-1 = tested on: IGROV-1
NCI-H522 = tested on: NCI-H522
Malme-3M = tested on: Malme-3M
NCI-H226 = tested on: NCI-H226

**Q.** Which GI50 (U-251) does the source give for `O=C(O)CCC1CCc2cccc(OCC(=O)O)c2C1=O` (stereo not drawn) here?
**A.** > 100 µM (inactive)

**Q.** And the GI50 (K562)?
**A.** > 100 µM (inactive)

**Q.** And the GI50 (LOX IMVI)?
**A.** > 100 µM (inactive)

**Q.** What about the GI50 (CCRF-CEM) of the same compound?
**A.** > 100 µM (inactive)

**Q.** And the GI50 (SK-OV-3)?
**A.** > 100 µM (inactive)

**Q.** And the GI50 (SNB-75)?
**A.** > 100 µM (inactive)

**Q.** What about the GI50 (HCC 2998) of the same compound?
**A.** > 100 µM (inactive)

**Q.** And the GI50 (SN12C)?
**A.** > 100 µM (inactive)

**Q.** And the GI50 (786-0)?
**A.** > 100 µM (inactive)

**Q.** What about the GI50 (SK-MEL-28) of the same compound?
**A.** > 100 µM (inactive)

**Q.** What about the GI50 (UACC-257) of the same compound?
**A.** > 100 µM (inactive)

**Q.** And the GI50 (SNB-19)?
**A.** > 100 µM (inactive)

**Q.** And the GI50 (HOP-92)?
**A.** > 100 µM (inactive)

**Q.** What about the GI50 (RPMI-8226) of the same compound?
**A.** > 100 µM (inactive)

**Q.** What about the GI50 (IGROV-1) of the same compound?
**A.** > 100 µM (inactive)

**Q.** Which GI50 (NCI-H522) does the source give for `Cc1cc(NS(=O)(=O)c2ccc(NC(=O)c3ccc(Cl)c4c(Nc5ccc(S(=O)(=O)Nc6cc(C)on6)cc5)c5ccccc5nc34)cc2)no1` here?
**A.** 11.8 µM (inactive)

**Q.** What about the GI50 (U-251) of the same compound?
**A.** 16.2 µM (inactive)

**Q.** What about the GI50 (K562) of the same compound?
**A.** 23.2 µM (inactive)

**Q.** And the GI50 (LOX IMVI)?
**A.** 18.5 µM (inactive)

**Q.** What about the GI50 (CCRF-CEM) of the same compound?
**A.** 18.8 µM (inactive)

**Q.** What about the GI50 (Malme-3M) of the same compound?
**A.** 16.2 µM (inactive)

**Q.** And the GI50 (SK-OV-3)?
**A.** 19.2 µM (inactive)

**Q.** What about the GI50 (SNB-75) of the same compound?
**A.** 6.46 µM (inactive)

**Q.** And the GI50 (SN12C)?
**A.** 18.6 µM (inactive)

**Q.** And the GI50 (786-0)?
**A.** 16 µM (inactive)

**Q.** What about the GI50 (SK-MEL-28) of the same compound?
**A.** > 10 µM (inactive)

**Q.** And the GI50 (UACC-257)?
**A.** 20.2 µM (inactive)

**Q.** And the GI50 (SNB-19)?
**A.** 14.4 µM (inactive)

**Q.** And the GI50 (HOP-92)?
**A.** 19.8 µM (inactive)

**Q.** What about the GI50 (RPMI-8226) of the same compound?
**A.** 27.5 µM (inactive)

**Q.** And the GI50 (IGROV-1)?
**A.** 21.5 µM (inactive)

**Q.** With `O=C(O)CSc1nnc(-c2ccccc2)[nH]1` as the compound, how does the GI50 (NCI-H522) read?
**A.** > 100 µM (inactive)

**Q.** What about the GI50 (U-251) of the same compound?
**A.** > 100 µM (inactive)

**Q.** And the GI50 (K562)?
**A.** > 100 µM (inactive)

**Q.** What about the GI50 (LOX IMVI) of the same compound?
**A.** > 100 µM (inactive)

**Q.** What about the GI50 (CCRF-CEM) of the same compound?
**A.** > 100 µM (inactive)

**Q.** And the GI50 (Malme-3M)?
**A.** > 100 µM (inactive)

**Q.** What about the GI50 (SK-OV-3) of the same compound?
**A.** > 100 µM (inactive)

**Q.** And the GI50 (NCI-H226)?
**A.** > 100 µM (inactive)

**Q.** What about the GI50 (SNB-75) of the same compound?
**A.** 37.2 µM (inactive)

**Q.** And the GI50 (HCC 2998)?
**A.** > 100 µM (inactive)

**Q.** And the GI50 (SN12C)?
**A.** > 100 µM (inactive)

**Q.** And the GI50 (786-0)?
**A.** > 100 µM (inactive)

**Q.** What about the GI50 (SK-MEL-28) of the same compound?
**A.** > 100 µM (inactive)

**Q.** And the GI50 (SNB-19)?
**A.** > 100 µM (inactive)

**Q.** And the GI50 (RPMI-8226)?
**A.** > 100 µM (inactive)

**Q.** What about the GI50 (IGROV-1) of the same compound?
**A.** > 100 µM (inactive)

**Q.** What does the source list for `COc1nc(NC2OCC(OC(C)=O)C(OC(C)=O)C2OC(C)=O)c(/N=C\C=N\c2c(NC3OCC(OC(C)=O)C(OC(C)=O)C3OC(C)=O)nc(OC)n(C)c2=O)c(=O)n1C` (stereo not drawn)?
**A.** GI50 (NCI-H522): > 100 µM (inactive); GI50 (U-251): > 100 µM (inactive); GI50 (K562): > 100 µM (inactive); GI50 (LOX IMVI): > 100 µM (inactive); GI50 (Malme-3M): > 100 µM (inactive); GI50 (SK-OV-3): > 100 µM (inactive); GI50 (SNB-75): > 100 µM (inactive); GI50 (HCC 2998): > 100 µM (inactive); GI50 (SN12C): > 100 µM (inactive); GI50 (786-0): > 100 µM (inactive); GI50 (SK-MEL-28): > 100 µM (inactive); GI50 (UACC-257): > 100 µM (inactive); GI50 (SNB-19): > 100 µM (inactive); GI50 (HOP-92): > 100 µM (inactive); GI50 (RPMI-8226): > 100 µM (inactive); GI50 (IGROV-1): > 100 µM (inactive)

**Q.** Which GI50 (NCI-H522) does the source give for `O=C(/C=C/c1ccccc1O)c1cccnc1` here?
**A.** > 100 µM (inactive)

**Q.** What about the GI50 (U-251) of the same compound?
**A.** > 100 µM (inactive)

**Q.** What about the GI50 (K562) of the same compound?
**A.** > 100 µM (inactive)

**Q.** What about the GI50 (LOX IMVI) of the same compound?
**A.** > 100 µM (inactive)

**Q.** What about the GI50 (CCRF-CEM) of the same compound?
**A.** > 100 µM (inactive)

**Q.** What about the GI50 (Malme-3M) of the same compound?
**A.** > 100 µM (inactive)

**Q.** And the GI50 (SK-OV-3)?
**A.** > 100 µM (inactive)

**Q.** And the GI50 (NCI-H226)?
**A.** > 100 µM (inactive)

**Q.** And the GI50 (SNB-75)?
**A.** > 100 µM (inactive)

**Q.** What about the GI50 (HCC 2998) of the same compound?
**A.** > 100 µM (inactive)

**Q.** What about the GI50 (SN12C) of the same compound?
**A.** > 100 µM (inactive)

**Q.** And the GI50 (786-0)?
**A.** > 100 µM (inactive)

**Q.** What about the GI50 (SK-MEL-28) of the same compound?
**A.** > 100 µM (inactive)

**Q.** What about the GI50 (UACC-257) of the same compound?
**A.** > 100 µM (inactive)

**Q.** And the GI50 (SNB-19)?
**A.** > 100 µM (inactive)

**Q.** And the GI50 (IGROV-1)?
**A.** > 100 µM (inactive)

**Q.** What does the source list for `O=S(=O)(O)c1ccc(-c2c3nc(c(-c4ccc(S(=O)(=O)O)cc4)c4ccc([nH]4)c(-c4ccc(S(=O)(=O)O)cc4)c4nc(c(-c5ccc(S(=O)(=O)O)cc5)c5ccc2[nH]5)C=C4)C=C3)cc1`?
**A.** GI50 (NCI-H522): 26.5 µM (inactive); GI50 (U-251): > 100 µM (inactive); GI50 (K562): > 100 µM (inactive); GI50 (LOX IMVI): > 100 µM (inactive); GI50 (CCRF-CEM): > 100 µM (inactive); GI50 (Malme-3M): > 100 µM (inactive); GI50 (SK-OV-3): > 100 µM (inactive); GI50 (SNB-75): 17.3 µM (inactive); GI50 (HCC 2998): > 100 µM (inactive); GI50 (SN12C): > 100 µM (inactive); GI50 (786-0): > 100 µM (inactive); GI50 (SK-MEL-28): 16.5 µM (inactive); GI50 (UACC-257): > 100 µM (inactive); GI50 (SNB-19): > 100 µM (inactive); GI50 (HOP-92): 21.8 µM (inactive); GI50 (RPMI-8226): > 100 µM (inactive); GI50 (IGROV-1): > 100 µM (inactive)

**Q.** `Oc1nc(S)nc2c1CCCN2` was tested. Which GI50 (NCI-H522) did it give?
**A.** > 100 µM (inactive)

**Q.** What about the GI50 (U-251) of the same compound?
**A.** > 100 µM (inactive)

**Q.** What about the GI50 (K562) of the same compound?
**A.** > 10 µM (inactive)

**Q.** And the GI50 (LOX IMVI)?
**A.** > 100 µM (inactive)

**Q.** What about the GI50 (CCRF-CEM) of the same compound?
**A.** > 100 µM (inactive)

**Q.** And the GI50 (Malme-3M)?
**A.** > 100 µM (inactive)

**Q.** And the GI50 (SK-OV-3)?
**A.** > 100 µM (inactive)

**Q.** What about the GI50 (SNB-75) of the same compound?
**A.** > 100 µM (inactive)

**Q.** What about the GI50 (SN12C) of the same compound?
**A.** > 100 µM (inactive)

**Q.** What about the GI50 (786-0) of the same compound?
**A.** > 100 µM (inactive)

**Q.** What about the GI50 (SK-MEL-28) of the same compound?
**A.** > 100 µM (inactive)

**Q.** What about the GI50 (UACC-257) of the same compound?
**A.** > 100 µM (inactive)

**Q.** And the GI50 (SNB-19)?
**A.** > 100 µM (inactive)

**Q.** And the GI50 (HOP-92)?
**A.** > 100 µM (inactive)

**Q.** And the GI50 (RPMI-8226)?
**A.** > 100 µM (inactive)

**Q.** And the GI50 (IGROV-1)?
**A.** > 100 µM (inactive)

**Q.** Which results are given for `CC(C)=CCCc1c(C)ccc2c1C(=O)C(=O)C(C(C)C)=C2`?
**A.** GI50 (NCI-H522): 3.4 µM (inactive); GI50 (U-251): > 22 µM (inactive); GI50 (K562): 3.87 µM (inactive); GI50 (CCRF-CEM): 0.661 µM (active); GI50 (Malme-3M): 3.73 µM (inactive); GI50 (SK-OV-3): > 22 µM (inactive); GI50 (NCI-H226): > 22 µM (inactive); GI50 (SNB-75): 9.62 µM (inactive); GI50 (HCC 2998): > 22 µM (inactive); GI50 (SN12C): 9.06 µM (inactive); GI50 (786-0): 3.95 µM (inactive); GI50 (SK-MEL-28): 3.87 µM (inactive); GI50 (SNB-19): > 22 µM (inactive); GI50 (HOP-92): 3.26 µM (inactive); GI50 (RPMI-8226): 0.839 µM (active); GI50 (IGROV-1): 9.84 µM (inactive)
